Measured values reported in patent US20160002248A1, “GLS1 INHIBITORS FOR TREATING DISEASE” (Board of Regents, The University of Texas System, priority 2014, published 2016).

Key:
[1] = molecular target: T1, purified recombinant human GAC (GLS1) (Homo sapiens, UniProt O94925); assay: GLS1 Enzymatic Activity Assay (dual-coupled enzymatic assay); assay type: biochemical
T1 sequence (O94925 55-598 isoform O94925-3 limits assumed): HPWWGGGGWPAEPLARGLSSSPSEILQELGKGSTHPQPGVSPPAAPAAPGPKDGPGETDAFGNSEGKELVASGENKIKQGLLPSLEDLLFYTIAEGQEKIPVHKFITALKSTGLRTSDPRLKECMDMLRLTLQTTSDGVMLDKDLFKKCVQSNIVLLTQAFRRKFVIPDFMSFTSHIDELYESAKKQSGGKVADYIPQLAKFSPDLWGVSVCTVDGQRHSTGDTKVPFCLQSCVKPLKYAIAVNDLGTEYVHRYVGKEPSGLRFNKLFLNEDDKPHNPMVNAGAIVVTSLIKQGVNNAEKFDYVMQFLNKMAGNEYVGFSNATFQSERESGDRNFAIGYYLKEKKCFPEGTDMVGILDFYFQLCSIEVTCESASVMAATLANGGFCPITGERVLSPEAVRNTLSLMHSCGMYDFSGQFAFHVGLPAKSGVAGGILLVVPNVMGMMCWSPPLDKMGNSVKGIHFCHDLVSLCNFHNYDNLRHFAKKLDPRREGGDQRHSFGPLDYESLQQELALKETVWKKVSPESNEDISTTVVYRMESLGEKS
How it was run: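 Recombinant human GAC (2 nM) preincubated with 50 mM potassium phosphate, then inhibitor (10 min each, RT); 1 mM glutamine, pH 7.4 Hepes buffer, 1% DMSO. Glutamate coupled via glutamate oxidase/HRP to resorufin (Ex 530/Em 590), kinetic or 20-min endpoint; IC50 by four-parameter logistic fit.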

A549 cells = assay: Proliferation Assay (A549 cell viability, Cell Titer Fluor); assay type: cell-based; settings: 72 hours
How it was run: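 Compound was added to A549 cells (1000/well, pre-grown 24 h in RPMI 1640 plus 10% dialyzed FBS) at 0.5% DMSO and left 72 h under 37 °C, 5% CO2, ambient O2. Live-cell fluorescence (Cell Titer Fluor) gave the EC50.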

For `Cc1ccc(CNC(=O)c2cn(CC(F)CCc3cc4cc(-c5ccccc5F)[nH]c4nn3)nn2)cn1` (stereo not shown) [Example 241, 1-(2-fluoro-4-(6-(2-fluorophenyl)-7H-pyrrolo[2,3-c]pyridazin-3-yl)butyl)-N-((6-methylpyridin-3-yl)methyl)-1H-1,2,3-triazole-4-carboxamide], which IC50 [1] is on record?
Its IC50 is under 100 nM.

What about the EC50 (A549 cells; Homo sapiens) of the same compound?
Its EC50 is under 100 nM.

Which results are given for `O=C(NCc1ccccn1)c1cn(CC(F)CCc2cc3cc(-c4ccccc4F)[nH]c3nn2)nn1` (stereo not shown) [Example 242, 1-{2-fluoro-4-[6-(2-fluorophenyl)-7H-pyrrolo[2,3-c]pyridazin-3-yl]butyl}-N-(pyridin-2-ylmethyl)-1H-1,2,3-triazole-4-carboxamide]?
IC50 [1]: < 100 nM; EC50 (A549 cells; Homo sapiens): 100 to 500 nM

For `CNC(=O)c1cn(CC(F)CCc2cc3cc(-c4ccccc4F)[nH]c3nn2)nn1` (stereo not shown) [Example 243, 1-{2-fluoro-4-[6-(2-fluorophenyl)-7H-pyrrolo[2,3-c]pyridazin-3-yl]butyl}-N-methyl-1H-1,2,3-triazole-4-carboxamide], which IC50 [1] is on record?
Its IC50 is 100 to 500 nM.

What about the EC50 (A549 cells; Homo sapiens) of the same compound?
The EC50 was 500 to 5000 nM.

How did the IC50 [1] turn out when `O=C(NCc1cc(C2CC2)ccn1)c1cn(CC(F)CCc2cc3cc(-c4ccccc4F)[nH]c3nn2)nn1` (stereo not shown) [Example 244, N-[(4-cyclopropylpyridin-2-yl)methyl]-1-{2-fluoro-4-[6-(2-fluorophenyl)-7H-pyrrolo[2,3-c]pyridazin-3-yl]butyl}-1H-1,2,3-triazole-4-carboxamide] was run?
Its IC50 is under 100 nM.

And the EC50 (A549 cells; Homo sapiens)?
The EC50 was under 100 nM.

What does the source list for “N-(5-(4-(7H-pyrrolo[2,3-c]pyridazin-3-yl)butyl)-1,3,4-thiadiazol-2-yl)-2-phenylacetamide [Example 64]”?
IC50 [1]: < 100 nM; EC50 (A549 cells): 500 to 5000 nM
